Read-outs that look alike come from different tables or passages of the source.
Legend:
[1] = system: HCV genotype 1a (H77 strain) replicon in HUH-7 cells; test: HCV replicon luciferase reporter assay, genotype 1a; format: cell-based; conditions: Hepatitis C virus, Huh-7, 72 h, 3 days incubation, read-out: LE_1a (EC50, range)
Outline: (§1)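 Replicon inhibition for both genotypes was measured as Renilla luciferase signal (EnduRen, 7.5 μM final, 2 h) after 3-day, 37° C exposure of replicon-bearing HUH-7 cells in 4% FCS DMEM, 0.5% DMSO. The 1b construct carries S1179I; the 1a H77 construct carries P1496L and S2204I. Twenty-point, 3-fold dilutions were fitted four-parametrically for EC50, and CC50 was taken from multiplexed Cell Titer-Blue.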

[2] = system: HCV genotype 1b (Con1) replicon in HUH-7 cells; test: HCV replicon luciferase reporter assay, genotype 1b; format: cell-based; conditions: Hepatitis C virus, Huh-7, 72 h, 3 days incubation, read-out: LE_1b (EC50, range)
Outline: as §1

[3] = HCV genotype 1a replicon luciferase
[4] = HCV genotype 1b replicon luciferase
[5] = GETYPE1A, HCV genotype 1a replicon luciferase
[6] = GETYPE1B, HCV genotype 1b replicon luciferase
[7] = HCV genotype 1a replicon luciferase assay, range class
[8] = HCV genotype 1b replicon luciferase assay, range class

| Compound | EC50 [1, 3] | EC50 [2, 4] | other results |
| --- | --- | --- | --- |
| COc1ccc2nc(C(C)C)c(O[C@@H]3C[C@H]4C(=O)N[C@]5(C(=O)NS(=O)(=O)C6CC6)C[C@H]5/C=C\CC[C@H](C)C[C@@H](C)[C@H](NC(=O)OC(C)(C)C)C(=O)N4C3)nc2c1 [Compound 4315, tert-butyl ((2R,6S,7R,9S,13aS,14aR,16aS,Z)-14a-((cyclopropylsulfonyl)carbamoyl)-2-((3-isopropyl-7-methoxyquinoxalin-2-yl)oxy)-7,9-dimethyl-5,16-dioxo-1,2,3,5,6,7,8,9,10,11,13a,14,14a,15,16,16a-hexadecahydrocyclopropa[e]pyrrolo[1,2-a][1,4]diazacyclopentadecin-6-yl)carbamate] | 5.01 to 35 nM | 1.01 to 5 nM | – |
| COc1ccc2c(O[C@@H]3C[C@H]4C(=O)N[C@]5(C(=O)NS(=O)(=O)C6(C)CC6)C[C@H]5/C=C\CC[C@@H](C)C[C@@H](C)[C@H](NC(=O)OC(C)(C)C(F)(F)F)C(=O)N4C3)ncc(N3CCOCC3)c2c1 [Compound 4135] | – | – | EC50 [1, 5]: < 5.46 nM; EC50 [2, 6]: < 5.46 nM |
| COc1ccc2c(O[C@@H]3C[C@H]4C(=O)N[C@]5(C(=O)NS(=O)(=O)C6(C)CC6)C[C@H]5/C=C\CC[C@H](C)C[C@@H](C)[C@H](NC(=O)OC(C)(C)C(F)(F)F)C(=O)N4C3)nc(-c3ccc(F)cc3)cc2c1 [Compound 3079, 1,1,1-trifluoro-2-methylpropan-2-yl((2R,6S,7R,9S,13aS,14aR,16aS,Z)-2-((3-(4-fluorophenyl)-6-methoxyisoquinolin-1-yl)oxy)-7,9-dimethyl-14a-(((1-methylcyclopropyl)sulfonyl)carbamoyl)-5,16-dioxo-1,2,3,5,6,7,8,9,10,11,13a,14,14a,15,16,16a-hexadecahydrocyclopropa[e]pyrrolo[1,2-a][1,4]diazacyclopentadecin-6-yl)carbamate] | – | – | EC50 [1, 7]: 4.82 to 103 nM; EC50 [2, 8]: < 5.46 nM |
| C[C@H]1CC/C=C\[C@@H]2C[C@@]2(C(=O)NS(=O)(=O)C2(CF)CC2)NC(=O)[C@@H]2C[C@@H](Oc3nc4c(c5ccccc35)OCCC4)CN2C(=O)[C@@H](NC(=O)OC(C)(C)C(C)(F)F)[C@H](C)C1 [Compound 6031, 3,3-difluoro-2-methylbutan-2-yl((2R,6S,7R,9S,13aS,14aR,16aS,Z)-2-((3,4-dihydro-2H-pyrano[3,2-c]isoquinolin-6-yl)oxy)-14a-(((1-(fluoromethyl)cyclopropyl)sulfonyl)carbamoyl)-7,9-dimethyl-5,16-dioxo-1,2,3,5,6,7,8,9,10,11,13a,14,14a,15,16,16a-hexadecahydrocyclopropa[e]pyrrolo[1,2-a][1,4]diazacyclopentadecin-6-yl)carbamate] | 4.82 to 103 nM | 4.82 to 103 nM | – |
| CCOc1cnc(O[C@@H]2C[C@H]3C(=O)N[C@]4(C(=O)NS(=O)(=O)C5(CF)CC5)C[C@H]4/C=C\CC[C@@H](C)C[C@@H](C)[C@H](NC(=O)OC(C)(C)C(F)(F)F)C(=O)N3C2)c2ccccc12 [Compound 4149] | – | – | EC50 [1, 5]: < 5.46 nM; EC50 [2, 6]: < 5.46 nM |
| COc1cc(F)cc2c(O[C@@H]3C[C@H]4C(=O)N[C@]5(C(=O)NS(=O)(=O)C6(CF)CC6)C[C@H]5/C=C\CC[C@H](C)C[C@@H](C)[C@H](NC(=O)OC(C)(C)C(C)(F)F)C(=O)N4C3)nccc12 [Compound 3179, 3,3-difluoro-2-methylbutan-2-yl((2R,6S,7R,9S,13aS,14aR,16aS,Z)-2-((7-fluoro-5-methoxyisoquinolin-1-yl)oxy)-14a-(((1-(fluoromethyl)cyclopropyl)sulfonyl)carbamoyl)-7,9-dimethyl-5,16-dioxo-1,2,3,5,6,7,8,9,10,11,13a,14,14a,15,16,16a-hexadecahydrocyclopropa[e]pyrrolo[1,2-a][1,4]diazacyclopentadecin-6-yl)carbamate] | – | – | EC50 [1, 7]: 4.82 to 103 nM; EC50 [2, 8]: 4.82 to 103 nM |
| C[C@@H]1CC/C=C\[C@@H]2C[C@@]2(C(=O)NS(=O)(=O)C2(C)CC2)NC(=O)[C@@H]2C[C@@H](Oc3nc4c(c5ccccc35)CCCO4)CN2C(=O)[C@@H](NC(=O)OC(C)(C)C)[C@H](C)C1 [Compound 6044, tert-butyl ((2R,6S,7R,9R,13aS,14aR,16aS,Z)-2-((2,3-dihydro-1H-pyrano[2,3-c]isoquinolin-6-yl)oxy)-7,9-dimethyl-14a-(((1-methylcyclopropyl)sulfonyl)carbamoyl)-5,16-dioxo-1,2,3,5,6,7,8,9,10,11,13a,14,14a,15,16,16a-hexadecahydrocyclopropa[e]pyrrolo[1,2-a][1,4]diazacyclopentadecin-6-yl)carbamate] | 1.01 to 5 nM | 0.1 to 0.5 nM | – |
| CC[C@@H]1C[C@H](C)CC/C=C\[C@@H]2C[C@@]2(C(=O)NS(=O)(=O)C2(C)CC2)NC(=O)[C@@H]2C[C@@H](Oc3ncc(OC)c4ccc(F)cc34)CN2C(=O)[C@H]1NC(=O)c1ccn(C)n1 [Compound 4356, (2R,6S,7R,9R,13aS,14aR,16aS,Z)-7-ethyl-2-((7-fluoro-4-methoxyisoquinolin-1-yl)oxy)-9-methyl-6-(1-methyl-1H-pyrazole-3-carboxamido)-N-((1-methylcyclopropyl)sulfonyl)-5,16-dioxo-1,2,3,5,6,7,8,9,10,11,13a,14,14a,15,16,16a-hexadecahydrocyclopropa[e]pyrrolo[1,2-a][1,4]diazacyclopentadecine-14a-carboxamide] | 0.51 to 1 nM | 0.1 to 0.5 nM | – |
| COCCOc1cc2c(Cl)cccc2c(O[C@@H]2C[C@H]3C(=O)N[C@]4(C(=O)NS(=O)(=O)C5(C)CC5)C[C@H]4/C=C\CC[C@@H](C)C[C@@H](C)[C@H](NC(=O)OC(C)(C)C(C)(F)F)C(=O)N3C2)n1 [Compound 1116, 3,3-difluoro-2-methylbutan-2-yl((2R,6S,7R,9R,13aS,14aR,16aS,Z)-2-((5-chloro-3-(2-methoxyethoxyl)isoquinolin-1-yl)oxy)-7,9-dimethyl-14a-(((1-methylcyclopropyl)sulfonyl)carbamoyl)-5,16-dioxo-1,2,3,5,6,7,8,9,10,11,13a,14,14a,15,16,16a-hexadecahydrocyclopropa[e]pyrrolo[1,2-a][1,4]diazacyclopentadecin-6-yl)carbamate] | – | – | EC50 [1, 7]: < 5.46 nM; EC50 [2, 8]: < 5.46 nM |
| COc1cnc(O[C@@H]2C[C@H]3C(=O)N[C@]4(C(=O)NS(=O)(=O)C5CCC5)C[C@H]4/C=C\CC[C@@H](C)C[C@@H](C)[C@H](NC(=O)OC(C)(C)C(F)(F)F)C(=O)N3C2)c2ccccc12 [Compound 5354, 1,1,1-trifluoro-2-methylpropan-2-yl((2R,6S,7R,9R,13aS,14aR,16aS,Z)-14a-((cyclobutylsulfonyl)carbamoyl)-2-((4-methoxyisoquinolin-1-yl)oxy)-7,9-dimethyl-5,16-dioxo-1,2,3,5,6,7,8,9,10,11,13a,14,14a,15,16,16a-hexadecahydrocyclopropa[e]pyrrolo[1,2-a][1,4]diazacyclopentadecin-6-yl)carbamate] | < 5.46 nM | < 5.46 nM | – |
| CC[C@@H]1C[C@H](C)CC/C=C\[C@@H]2C[C@@]2(C(=O)NS(=O)(=O)C2(C)CC2)NC(=O)[C@@H]2C[C@@H](Oc3nccc4cc(OC)c(F)cc34)CN2C(=O)[C@H]1NC(=O)OC(C)(C)C(F)F [Compound 5527, 1,1-difluoro-2-methylpropan-2-yl((2R,6S,7R,9R,13aS,14aR,16aS,Z)-7-ethyl-2-((7-fluoro-6-methoxyisoquinolin-1-yl)oxy)-9-methyl-14a-(((1-methylcyclopropyl)sulfonyl)carbamoyl)-5,16-dioxo-1,2,3,5,6,7,8,9,10,11,13a,14,14a,15,16,16a-hexadecahydrocyclopropa[e]pyrrolo[1,2-a][1,4]diazacyclopentadecin-6-yl)carbamate] | 1.01 to 5 nM | 0.51 to 1 nM | – |

From patent publication US9499550B2 (BRISTOL-MYERS SQUIBB COMPANY, priority 2012, dated 2016)
